Counter-ions that a name gives are not always drawn. Like-named read-outs stand apart in the source and are kept apart here.
Assays:
eye = conditions: cited from earlier work
[1] = tested on: reconstructed human corneal epithelium model (SkinEthic™ HCE)
Description: The reconstructed human corneal epithelium model, (SkinEthic™ HCE) was purchased from Episkin in Lyon. The model consists of immortalized human corneal epithelial cells grown in a defined medium at the air-liquid interface. The tissue structure obtained is a multi-layer epithelium similar to the natural tissue structure of the human cornea, comprising 5-7 layers with a surface area of 0.5 cm^2.
Polyhedral cells and wing cells are also present. The tissue also comprises specific ultrastructures such as intermediate filaments, mature hemidesmosomes and desmosomes. […] The tissues are shipped on a semi-solid layer of agarose culture medium. Upon receipt, the tissues are transferred to maintenance medium (1 ml/well) in 6-well plates and incubated in a climatic chamber at 37° C., 5% CO2. The tissues are used 24 hours later.
The procedure for applying solid (powdered) products to the tissues was optimized as follows. First, the products are reduced to the finest possible powder with a mortar. The chemicals are tested at a single dose. In summary, the tissue surface is moistened by adding 20 μl of PBS at 37° C. and incubation for 10 min at 37° C./5% CO2. The corneal epithelia are then treated topically with 30±2 mg (representing 60 mg/cm2) and incubated for 30 min at room temperature. The tissues are then washed with sterile PBS (2×25 ml) at 37° C. PBS is applied to the edge of the insert (not directly on the tissue) to create a gentle vortex that removes the chemical. The tissues on their inserts are then “embedded” in 5 ml of maintenance medium at room temperature for 30 minutes in order to remove as much as possible of the product remaining on the tissue surface. The medium is then removed by gently tapping the insert on absorbent paper, and 50 μl of maintenance medium at 37° C. is added. The inserts are then incubated for 6 h at 37° C./5% CO2.
In summary, corneal tissues are recovered with forceps and placed in tubes for rapid freezing in liquid nitrogen. The RNA is then extracted by the QIAzol technique (Qiagen, Courtaboeuf, France) with an “RNeasy Mini Kit” according to the manufacturer's instructions. In summary, the tissues are placed in 1 ml of QIAzol and homogenized using the TissueLyser II (Qiagen, Courtaboeuf, France) with 2 steel beads. After centrifugation, the supernatant is collected and 0.2 ml of bromochloro propane (Sigma, France) is added, then the whole is vigorously mixed. The homogenate is centrifuged at 12,000 g for 15 min at 4° C. The upper phase (aqueous phase) is added to 600 μl of 70% ethanol and immediately mixed by pipetting. The mixture is transferred to an RNeasy spin column placed on a 2 ml collection tube and the RNA is collected according to the manufacturer's instructions (Qiagen, Courtaboeuf, France).
In summary, the transcription of total RNA is performed with 1 μg of total RNA in a final volume of 20 μl using “Random Primers” (Invitrogen, France) and “SuperScript III Reverse Transcriptase” (Invitrogen, France) according to the manufacturer's instructions. Quantitative RT-PCR uses a PCR reagent mix: SYBR Green Real-Time PCR Master Mix (ROCHE, France) with 0.4 μM of each nucleotide primer in a final volume of 25 μl. The reaction is performed in an LC480 System (ROCHE, France). The amplification program comprises a cycle at 95° C. for 1 min, followed by 40 cycles with denaturation at 95° C. for 15 s, a hybridization and amplification phase at 60° C. for 15 s, followed by a final elongation phase at 72° C. for 40 s.
The relative amount of each transcript is normalized to the average amount of expression of 5 so-called housekeeping genes (Glucuronidase β-GUSB, vacuolar ATPase-ATP6V0E1, H2A Histone Family, Member Y-H2AFY, Glucose-6-Phosphate Dehydrogenase-G6PD and “non-POU domain-containing, octamer-binding”-NONO).
The gene expression rate is measured by an absolute quantification analysis method using an algorithm based on the maximum of the second derivative developed by Roche.

[2] = Table 6, list of solid chemicals studied
[3] = control chemicals and chemicals of FIG. 1 and FIG. 2
[4] = classification from the Solid Irritation Index
[5] = solid product applied pure in powder form, 30±2 mg, first of three index values
[6] = solid product applied pure in powder form, 30±2 mg, second of three index values
[7] = solid product applied pure in powder form, 30±2 mg, third of three index values

| Structure (SMILES) | UN-GHS (eye; Draize test classification) | GHS Class (eye; [2]) | eye irritation category as stated in text and figure legends (eye; [3]) | EIT prediction [1, 4] | Irritation INDEX [1, 5] | Irritation INDEX [1, 6] | Irritation INDEX [1, 7] | EIT prediction [1] | also measured |
| --- | --- | --- | --- | --- | --- | --- | --- | --- | --- |
| CC(C)(O)CCC(C)(C)O | Cat 1 | Cat 1 | category 1 | Cat 1 | 22 | 23 | 21 |  |  |
| O=C(Nc1ccc(Cl)cc1)Nc1ccc(Cl)c(Cl)c1 [1-(4-Chlorophenyl)-3-(3,4-dichlorophenyl) urea] | No Cat | No cat |  | No Cat | 0 | 0 | 1 |  |  |
| Cc1cc(C)nc(Nc2ccccc2)n1 [2-Anilino-4,6-dimethylpyrimidine] |  |  |  |  |  |  |  | No Cat | GHS Class (eye; rabbit, in vivo): No cat; UN-GHS (eye; rabbit, in vivo): No Cat; eye irritation category as stated in text and figure legends (eye; rabbit, in vivo): No category; Irritation INDEX ([1]; human, 30 min, 60 mg/cm2): 0 |
| CC(C)(C)c1cc(Cc2cc(C(C)(C)C)c(O)c(C(C)(C)C)c2)cc(C(C)(C)C)c1O [4,4′-Methylene bis-(2,6-di-tert-butylphenol)] | No Cat | No cat | No category |  |  |  |  | No Cat |  |
| CCOc1ccc(Br)cc1 [4-Bromophenetol] | No Cat | No cat | No category | No Cat | 2 | 2 | 3 |  |  |
| CC(C)(C)CC(C)(C)c1cc(Cc2cc(C(C)(C)CC(C)(C)C)cc(-n3nc4ccccc4n3)c2O)c(O)c(-n2nc3ccccc3n2)c1 [Methylene bis-benzotriazolyl tetramethylbutyl phenol] | No Cat |  |  |  |  |  |  | No Cat |  |
| F[B-](F)(F)F.[K+] [Potassium tetrafluoroborate] | No Cat | No cat | No category | No Cat | 4 | 6 | 2 |  |  |
| CC(CN1c2ccccc2Sc2ccccc21)N(C)C (centres unmarked) [Promethazine hydrochloride] | Cat 1 | Cat 1 | category 1 |  |  |  |  |  | EIT prediction ([1]; human, 30 min, 60 mg/cm2): Cat 1 |
| O=C([O-])C(=O)[O-].[Na+].[Na+] [Sodium oxalate] | Cat 1 | Cat 1 | category 1 |  |  |  |  | Cat 1 |  |
| CCCCCCCCCCCCCCOC(=O)CCCCCCCCCCCCC [Tetradecyl tetradecanoate] |  |  | No category |  |  |  |  | No Cat |  |
| CC(C)(O)C(=O)O [alpha-Hydroxyisobutyric acid] |  |  | category 1 |  |  |  |  |  | EIT prediction ([1]; human, 30 min, 60 mg/cm2): Cat 1 |

Reference: patent US12410472B2, “Method for evaluating the eye irritation potential of chemicals” (IMMUNOSEARCH, priority 2016, dated 2025)
